Reference: patent US20100216891A1, “AROMATIC ANTIHYPERTENSIVE AGENT, AND METHOD FOR LOWERING BLOOD PRESSURE IN MAMMALS” (PANASONIC CORPORATION, priority 2008, published 2010)

Test system: male Wister strain rats
Experiment: Test Example 1: change in blood pressure of rats on presentation of aromatic compositions to the nostril
Type: in vivo
Details: rat, aroma presented to vicinity of nostril for 10 minutes, 30 minutes after the presentation, FIG. 1
Method: Focusing attention on aromatic components contained in a Melissa essential oil, one of plant essential oils, various aromatic compositions were presented to male Wister strain rats, and evaluation of change in caudal arterial pressure before and after the presentation was conducted. The test was carried out under conditions that avoid stress which may be placed on the rat as less as possible, and thus can be kept calm in an environment of the measurement of the blood pressure.
Male Wister strain rats of 7-week old were purchased, and after one week acclimatization period, the blood pressure was measured on 8-week old. All experimental animals were kept under a 12:12 light-dark cycle (light period: from 8 AM to 8 PM), with allowing for free access to chow and drinking water.
Training for adaptation of the 7-week old rat to a holder for the blood pressure measurement was carried out for one week. […]
For three days after completing the training, change in the blood pressure was measured upon presentation of the aromatic composition to the rats. […] The blood pressures before and after 30 minutes from presenting the aromatic compositions were measured, and the changes of the blood pressures were compared. […]

SMILES	change in diastolic blood pressure (caudal arterial pressure) after presentation compared with the values before the presentation
CC(C)=CCCC(C)=CC=O [citral]	lowering of the blood pressure
C=CC(C)(O)CCC=C(C)C (centres unmarked) [linalool]	lowering of the blood pressure
